Experimental findings from US5063210A, “Use of sulfated polysaccharides to decrease cholesterol and fatty acid absorption” (priority 1989, dated 1991) are described below.

Format in all cases: biochemical
The subject of data set [1] is human pancreatic cholesterol esterase. As to the kind of experiment: Inhibition of human pancreatic cholesterol esterase, hydrolysis of cholesteryl 14C-oleate in phosphatidylcholine vesicles. To be noted: for IC50, inhibition of cholesterol esterase (cholesteryl oleate hydrolysis) / IC50: substrate cholesteryl 14C-oleate, 37° C., 15 min; for IC50: molar values from assumed molecular weights.

The target in data set [2] is human 100 kDa cholesterol esterase. In words: Inhibition of triolein hydrolysis by the human 100 kDa cholesterol esterase. Conditions: substrate triolein instead of cholesteryl oleate. On the procedure: Alginic acid from Macrocystis pyrifera (kelp) was dissolved in water at a concentration of 1 mg/ml. This stock solution was used to prepare various polysaccharide concentrations down to 10^-5 mg/ml. Human pancreatic cholesterol esterase was purified as described by Bosner et al., Proc. Nat'l. Acad. Sci., 85, 7438 (1988). To measure cholesterol esterase inhibition by alginic acid, 50 μl of cholesterol esterase (10 μg/ml), 75 μl of phosphatidylcholine vesicles containing cholesteryl ^14 C-oleate (1 mM 2,000 CPM/nmole), 25 μl of 100 mM taurocholate, 120 μl of 150 mM Tris, pH 7.5 and 30 μl of test alginic acid solution were incubated at 37° C. for fifteen minutes. The assay was quenched by placing the reaction vessels in a 4° C. ice bath and by adding 0.6 ml of 0.3 N NaOH and 3 ml of benzene/chloroform/methanol (1.0/1.2/0.5). The quenched reactions were vortexed for 30 seconds, centrifuged at 3,000 g for 15 minutes and 1 ml of the upper aqueous phase was added to 7 ml of Aquasol-2 (DuPont) with 0.025 ml of 6 N HCl. These mixtures were vortexed for one minute and counted for ^14 C-oleate. The counts were compared to a sample which contained cholesterol esterase but no alginic acid to determine the percentage of inhibition.
(The same assay procedure was used as described in Part I, only triolein was used instead of cholesteryl oleate.) As shown in the table below, the IC50 for inhibition of triolein hydrolysis is nearly the same as that for cholesteryl oleate hydrolysis.

A further data set deals with cholesterol esterase. As to the kind of experiment: Baking stability: cholesterol esterase inhibition by water extract of a baked corn muffin containing the inhibitor. Conditions: baked fifteen minutes in a 400° oven. On the procedure:
The sulfated polysaccharides described here retain their inhibitory activity for prolonged periods at elevated temperatures. […] For example, 109 mg of cellulose sulfate were added to 198 gm (7 oz) of corn muffin mix (Gold Medal®) and the solid ingredients were thoroughly mixed together. After the addition of one egg and one-third cup milk, the muffin mix was stirred fifteen times. The mixture was poured into nine muffin tins and baked for fifteen minutes in a 400° oven. The next day one muffin was broken up, added to 100 ml of water and allowed to stand for fifteen minutes. The mixture was centrifuged and the clear supernatant was assayed for the presence of cholesterol esterase inhibition. The IC50 of this solution was achieved when this solution was diluted 10^3 -10^4 times.

As usually defined, the IC50 is the concentration at which inhibition is half-maximal. A low value points to inhibition by little substance. With Alginic acid, in data set [1] (IC50 of alginic acid relative to IC50 of the sulfated derivative), the “Enhancement Factor” value came to 1.0. For the same substance, in data set [1], the “IC50, inhibition of cholesterol esterase (cholesteryl oleate hydrolysis)” value came to 4 µg/mL and it took 20 nM to reach half-maximal inhibition (IC50). In data set [2], this substance displayed an IC50 of 42 nM.
For Cellulose Sulfate, the “Stability of inhibitory activity under baking conditions / elevated temperatures” value with cholesterol esterase is on record as “stable under baking conditions”. Besides, the IC50 in data set [1] turned out to be 0.02 nM; in data set [2] it was 0.06 nM.
Turning to Chitin Sulfate, the IC50 in data set [1] was determined as 0.06 nM; in data set [2] it was 0.14 nM.
Regarding Chitosan Sulfate, in data set [1], the “IC50, inhibition of cholesterol esterase (cholesteryl oleate hydrolysis)” value came to 0.015 µg/mL and the IC50 stood at 0.03 nM. In data set [2], inhibition was half-maximal at 0.16 nM (IC50).
Substance agar [native (unsulfated) agar] yielded an IC50 in data set [1] of 30 nM.
As for pectin [native, unsulfated pectin], the “Inhibition of cholesterol esterase (in words)” value in data set [1] is listed as “does not inhibit cholesterol esterase”.
